The test system of one assay is human DC. In words: Human DC maturation (CD86 upregulation) in coculture with human iNKT cells and lipids. Particulars: compared to ThrCer; comparable to α‐GalCer; 40 h. The format is cell-based. The protocol: Figure 1 ThrCer 6 and ThrCer 7 are potent human iNKT‐cell agonists and display a prolonged interaction with the iNKT‐cell TCR when in complex with human CD1d molecules. (A) The structures of α‐GalCer and non‐glycosidic analogs ThrCer, ThrCer 6, and ThrCer 7 are shown. (B) Equilibrium binding and kinetics measurements of a soluble human iNKT‐cell TCR were assessed for hCD1d molecules refolded with α‐GalCer, ThrCer, ThrCer 6, and ThrCer 7. K d values (μM) were calculated from equilibrium binding. (C and D) iNKT‐cell agonists were added to human CD1d C1R cells at various concentrations. After incubating overnight, the degree of iNKT‐cell recognition, assessed either (C) by using a tetrameric human iNKT‐cell TCR by flow cytometry or (D) by the addition of human iNKT cells to cultures and determining the amount of IFN‐γ released in supernatant by ELISA. (E) Human DC maturation was assessed following coculture with human iNKT cells and l μg lipids after 40 h, as determined by CD86 upregulation on DC by flow cytometry. Median fluorescent intensity = MFI. (D and E) Error bars are mean ± SEM (triplicate wells). […]
To this end, hCD1d‐expressing C1R cells were loaded overnight with serial dilutions of lipids (α‐GalCer, ThrCer, ThrCer 6, and ThrCer 7) and then incubated with human iNKT cells. iNKT‐cell activation was assessed by measuring IFN‐γ production in the supernatant by ELISA. […]

A further assay concerns murine iNKT cells. In words: In vivo iNKT‐cell activation in mice: serum IFN‐γ/IL‐4 ELISA and splenic DC maturation. Also noted: species or system C57BL/6 mice. The note with it: for DC maturation (CD40 on CD11c+ cells) in iNKT cell deficient mice: CD1d−/− mice. Here is the method:
Figure 2 Enhanced in vivo potency of ThrCer 6. (A) Equilibrium binding and kinetics measurements of a soluble mouse iNKT‐cell TCR were assessed for mCD1d molecules refolded with α‐GalCer, ThrCer 6 and ThrCer 7. K d values (μM) were calculated from equilibrium binding. (B–D) Mice were immunized with 1 μg lipids i.v. and (B) IL‐4 and (C) IFN‐γ were detected by ELISA in blood sera at either 2 or 18 h, respectively. (D) At 18 h, immunized mice were sacrificed and splenocytes stained with anti‐CD11c and anti‐CD86 antibodies to determine the extent of maturation by the expression of CD86 on gated DCs (CD11c^+) using flow cytometry. (E and F) Mice were immunized i.v. with titrating doses of α‐GalCer, ThrCer, ThrCer 6, and ThrCer 7 and (E) IFN‐γ and (F) IL‐4 were detected in blood sera at 2, 12, and 18 h by ELISA. Median fluorescent intensity = MFI. (B–F) Data are shown as mean ± SEM (n = 3/group) and are representative of two independent experiments (A), three experiments (B–D), or a single experiment (E and F). *p < 0.05; Student's t‐test.
Concentrations of murine IFN‐γ and IL‐4 in serum were determined using standard sandwich ELISAs using the R4‐6A2 capture Ab for IFN‐γ (eBioscience), and the ID11 capture Ab for IL‐4 (Endogen). Biotinylated XMG1.2 (eBioscience) was used as the detection Ab for IFN‐γ and biotinylated BVD6‐24G2 (eBioscience) was used as the detection Ab for IL‐4. Human IFN‐γ in supernatants was determined using the capture Ab NIB42 (BD Pharmingen) and biotinylated 4S.B3 (BD Pharmingen) as the detection Ab.
Lipid compounds were solubilized in 150 mM NaCl and 0.5% Tween 20 (vehicle). All substances were diluted in PBS and administered either i.v., or i.m. Unless stated otherwise, doses used per injection were 400 μg OVA (Sigma) and 100 ng of lipid compounds or vehicle.
Human iNKT‐cells were expanded as described previously 34. For lipid titration studies, hCD1d C1R cells were pulsed with lipids overnight and following washes, cocultured with human iNKT cells. The presence of IFN‐γ was detected in supernatants by ELISA 12. For DC maturation studies, immature DCs were collected on day 4 and pulsed with lipids and iNKT cells 34. DC maturation was determined by the upregulation of CD86 by flow cytometry on a FACSCalibur with CellQuest software (BD) and analyzed with FlowJo software (Tree Star). For in vivo murine APC phenotype analysis the expression of CD86 or CD40 on CD11c^+ APCs from spleen were determined after 18 h post i.v. of 1 μg lipids on a CyAn cytometer and analyzed with FlowJo software (Tree Star).
A general note: In an ELISA, binding on a coated surface is turned into a signal by an enzyme label.

The next assay relates to B16 melanoma cells. The experiment in a line: B16 melanoma lung metastasis model. It counts as in vivo, C57BL/6 mice. The note with it: 1 and 0.1 ng i.v.; versus ThrCer; comparable protection at 1000‐fold lower dose than ThrCer. Here is the method: To this end, mice were injected i.v. with a range of doses of lipids (100, 1, 0.1 ng) and 3 days later, challenged with i.v. injected 5 × 10^5 B16 melanoma cells. Fourteen days later, the metastasis load in the lungs was quantified. […] With a reduction in lipid dose, the extent of tumor metastasis burden increased to varying degrees.
(A) Mice were immunized with 100, 1, or 0.1 ng of lipids i.v. 3 days before receiving an i.v. challenge with 5 × 10^5 B16 melanoma cells (n = 4/group). Two weeks later the lungs were removed and the number of metastatic nodules quantified as described in section “Materials and methods”. Data in the three panels are shown as mean ± SEM of tumor area as percentage of total lung area, and are representative of two independent experiments. (B) Representative lung lobe from each group is shown. Photographic images are representative of four lung lobes in each of two independent experiments.
C57BL/6 mice were challenged i.v. with syngeneic B16F10 melanoma, resuspended in PBS. A total of 5 × 10^5 cells in 200 μL were administered 3 days after administration of indicated doses of iNKT‐cell agonists (100, 1, or 0.1 ng). Two weeks after challenge, mice were killed, lungs removed, imaged and the percentage of lung tumor metastases quantified using Adobe Photoshop®.

As for `CCCCCCCCCCCCCCCCCCCCCCCCCC(=O)N[C@@H](CO[C@H]1CC[C@H](O)[C@H](O)[C@H]1O)[C@H](O)[C@H](O)CCCCCCCCCCCCCC` [ThrCer 6], in the assay with human DC, the “Human DC maturation (CD86 upregulation)” value was “improved ability”. In the assay on murine iNKT cells (1 μg i.v., serum IL‐4 2 h, IFN‐γ 18 h, CD86 on CD11c+ DC, greater than ThrCer, similar to α‐GalCer), the “Ability to activate murine iNKT cells and mature DC in vivo” value was “marked increase”. Besides, in the assay on murine iNKT cells (1 μg i.v.), the “DC maturation (CD40 on CD11c+ cells) in iNKT cell deficient mice” value is listed as “do not mature DCs”. The “Serum IFN‐γ secretion after intramuscular injection” value in the assay on murine iNKT cells (i.m., 18 h post injection, compared with α‐GalCer) is “higher”. Moreover, the “Serum IFN‐γ secretion, in vivo dose titration” value in the assay on murine iNKT cells (i.v., after 12 and 18 h, compared with α‐GalCer) is given as “significantly enhanced”. Besides, in the assay with B16 melanoma cells, the “Protection against B16 lung metastases at reduced lipid dose” value is “far greater protection”.

For the molecule `CCCCCCCCCCCCCCCCCCCCCCCCCC(=O)NC(COC1CCCC(O)C(O)C1O)C(O)C(O)CCCCCCCCCCCCCC` (stereo not drawn) [ThrCer 7], the “Human DC maturation (CD86 upregulation)” value with human DC was “improved ability”. In addition, the “DC maturation (CD40 on CD11c+ cells) in iNKT cell deficient mice” value in the assay on murine iNKT cells (1 μg i.v.) is listed as “do not mature DCs”.

As for `CCCCCCCCCCCCCCCCCCCCCCCCCC(=O)N[C@@H](CO[C@H]1O[C@H](CO)[C@H](O)[C@H](O)[C@H]1O)[C@H](O)[C@H](O)CCCCCCCCCCCCCC` [α‐GalCer, α‐galactosylceramide, reference compound], the “Protection against B16 lung metastases at reduced lipid dose” value in the assay on B16 melanoma cells was “far greater protection”.

Source of the values: paper PMC4913735, “Non‐glycosidic compounds can stimulate both human and mouse iNKT cells” (European Journal of Immunology, 2016).
